Source: PMC5522442, “β-Ginkgotides: Hyperdisulfide-constrained peptides from Ginkgo biloba” (Scientific Reports, 2017)
Bridge positions count the residues as written; N and C are the ends. Peptide text beside a SMILES is read from it.

Columns and labels:
BHK cell line = test: In vitro cytotoxicity (MTT), BHK cells; format: cell-based; conditions: concentrations up to 100 µM, 24 hr
[1] = Enzymatic stability against trypsin; format: in vitro ADME; conditions: isolated enzyme trypsin; endopeptidase trypsin, up to 6 hr, 37 °C, 100 mM ammonium bicarbonate pH 7.8; 28 µg peptide; quenched with 1 M HCl; UPLC peak area with MALDI-TOF MS; read-out: peptide remaining after trypsin
Description: The β-ginkgotide β-gB1 (28 µg) was added to 100 µL of 100 mM ammonium bicarbonate buffer (pH 7.8) and incubated in a water bath at 37 °C for 6 hr. At each time-point (0 and 6 hr), 20 µL of the treated sample was aliquoted and quenched by adding 5 µL of 1 M hydrochloric acid.
The reaction mixture was analyzed by a Nexera UHPLC system (Shimadzu, Kyoto, Japan) equipped with an Aeris peptide XB-C18 column (Phenomenex, CA, USA; particle size 3.6 µm, 100 × 4.6 mm). The eluents were monitored with MALDI-TOF MS, and the area under the peak before and after the treatment was determined to evaluate stability.
Figure S5. Stability assays of β-gB1. (A) Thermal stability of β-gB1 incubated at 100 °C for 120 minutes. (B) Acidic condition stability of […] incubated in 0.2 M HCl (pH 2.0) at 37 °C for 120 minutes. […] The molecular weight of the peak was determined by MALDI-TOF MS.

[2] = Enzymatic stability against carboxypeptidase A; format: in vitro ADME; conditions: isolated enzyme carboxypeptidase; exopeptidase carboxypeptidase A (method prints 100 nM carboxypeptidase B), up to 6 hr, 37 °C, 50 mM Tris-HCl pH 7.5, 100 mM NaCl; 28 µg peptide; UPLC peak area with MALDI-TOF MS; read-out: peptide remaining after carboxypeptidase A
Vero cell line = test: In vitro cytotoxicity (MTT), Vero cells; format: cell-based; conditions: concentrations up to 100 µM, 24 hr
[3] = tested on: erythrocytes obtained from human type O blood; test: Hemolytic effect on erythrocytes; format: cell-based; conditions: human type O erythrocytes in PBS; concentrations up to 100 µM; 4 hr, 37 °C; read at 415 nm
Description: Erythrocytes were isolated from fresh blood type O+ by centrifugation for 15 min at 10000 rpm. The erythrocytes were diluted with phosphate-buffered saline, mixed with various concentrations of β-ginkgotide β-gB1 (1–100 µM) and incubated for 4 hr at 37 °C. The hemolytic effect was examined using a microplate reader set at 415 nm^3.

CC[C@H](C)[C@@H]1NC(=O)[C@@H]2CSSC[C@H](NC(=O)CNC(=O)[C@@H](NC(=O)[C@H](CCC(=O)O)NC(=O)[C@@H](N)Cc3ccc(O)cc3)[C@@H](C)O)C(=O)N[C@@H](CCCCN)C(=O)N[C@@H](CCCNC(=N)N)C(=O)N[C@H]3CSSC[C@@H](C(=O)O)NC(=O)[C@H](CSSC[C@H](NC3=O)C(=O)N[C@@H](Cc3ccc(O)cc3)C(=O)N[C@@H](CC(C)C)C(=O)N[C@@H](CC(=O)O)C(=O)N[C@@H](CCC(=O)O)C(=O)N[C@@H](Cc3ccc(O)cc3)C(=O)NCC(=O)N2)NC(=O)[C@H](CCCNC(=N)N)NC1=O [β-gB1] (H-YETGCKRCCYLDEYGCIRCC-OH; disulfide 5-16, 8-20, 9-19)
cytotoxic effect, BHK cells (BHK cell line): nontoxic
remaining at 6 h [1]: > 90%
remaining at 6 h [2]: > 90%
cytotoxic effect, Vero cells (Vero cell line): nontoxic
hemolytic effect [3]: no hemolytic effect
